A short description of this series: in vitro. It is filed as in vitro ADME, mouse. Conditions: male, CD-1, mouse; for fraction unbound at 4 h, 5 μM: plasma (pooled), mouse plasma, read-out: fu, fraction unbound; for recovery at 4 h, 5 μM: plasma protein binding assay. Here is the method:
The PPB studies were performed by Selvita d.o.o. (Zagreb, Croatia) in mouse plasma (CD-1 male, pooled, commercially obtained from BioIVT) via equilibrium dialysis. Compounds were assayed at 5 μM (0.5% DMSO) in two replicates, and incubation time was 4 h at 37 °C. Samples were taken at 0 min and 4 h. Aliquots from both buffer and plasma compartment matrix were matched and mixed with 6 volumes of STOP solution (acetonitrile/methanol (2:1) + internal standard – diclofenac) and analyzed by LC–MS/MS. Assay controls were caffeine (low), verapamil (moderate binding), and nicardipine (very high binding), and protein contamination was checked.

Each structure is given as a SMILES string. A value given as a limit tells only on which side of the number the result lay.

For `Cc1[nH]c(C(=O)Nc2nc3c(N4CCOCC4C)cc(C(=O)O)cc3s2)c(Cl)c1Cl` (stereo not shown) [7b, 2-(3,4-Dichloro-5-methyl-1H-pyrrole-2-carboxamido)-4-(3-methylmorpholino)benzo[d]thiazole-6-carboxylic Acid], the fraction unbound at 4 h, 5 μM was found to be 0.013 and the recovery at 4 h, 5 μM is 84.5%.

As for `Cc1[nH]c(C(=O)Nc2nc3c(N4CCOC[C@H]4C)cc(C(=O)O)cc3s2)c(Cl)c1Cl` [7c, (R)-2-(3,4-Dichloro-5-methyl-1H-pyrrole-2-carboxamido)-4-(3-methylmorpholino)benzo[d]thiazole-6-carboxylic Acid], the fraction unbound at 4 h, 5 μM was found to be 0.016 and the recovery at 4 h, 5 μM is 93%.

On to `Cc1[nH]c(C(=O)Nc2nc3c(N4CCOC[C@@H]4C)cc(C(=O)O)cc3s2)c(Cl)c1Cl` [7d, (S)-2-(3,4-Dichloro-5-methyl-1H-pyrrole-2-carboxamido)-4-(3-methylmorpholino)benzo[d]thiazole-6-carboxylic Acid], for which the fraction unbound at 4 h, 5 μM amounted to 0.011 and the recovery at 4 h, 5 μM was 89.5%.

In the case of `Cc1[nH]c(C(=O)Nc2nc3c(N4C[C@H]5CC[C@@H](C4)O5)cc(C(=O)O)cc3s2)c(Cl)c1Cl` [7g, 4-((1R,5S)-8-Oxa-3-azabicyclo[3.2.1]octan-3-yl)-2-(3,4-dichloro-5-methyl-1H-pyrrole-2-carboxamido)benzo[d]thiazole-6-carboxylic Acid], the fraction unbound at 4 h, 5 μM is 0.004 and the recovery at 4 h, 5 μM came to 93.5%.

As to `Cc1[nH]c(C(=O)Nc2nc3c(N4CCOC(C(F)(F)F)C4)cc(C(=O)O)cc3s2)c(Cl)c1Cl` (stereo not shown) [7i, 2-(3,4-Dichloro-5-methyl-1H-pyrrole-2-carboxamido)-4-(2-(trifluoromethyl)morpholino)benzo[d]thiazole-6-carboxylic Acid], the fraction unbound at 4 h, 5 μM was less than 0.001 and the recovery at 4 h, 5 μM was found to be 110%.

Source of the values: paper PMC10041525, “New Dual Inhibitors of Bacterial Topoisomerases with Broad-Spectrum Antibacterial Activity and In Vivo Efficacy against Vancomycin-Intermediate Staphylococcus aureus” (Journal of Medicinal Chemistry, 2023).
